The text below walks through data of patent publication US8623908B2, “Use of tellurium compounds for inhibition of interleukin-converting enzyme” (Biomas Ltd., priority 2004, dated 2014).

Read-outs that look alike come from different tables or passages of the source.

In data set [1] the test system is IL-1β secretion by human PBMC. Description: SAC-induced secretion of IL-1β by PBMC (ELISA). The class given is cell-based. As for the experimental part:
Human peripheral blood mononuclear cells (PBMC) were isolated from randomly selected healthy donors by Ficoll-Hypaque (Pharmacia, Piscataway, N.J.) density-gradient centrifugation. PBMC were adjusted to 2.5×10^6 cells/ml and cultured in enriched RPMI 1640 medium (Biological industries, Kibbutz Beit Haemek, Israel) with 10% FCS (Biological industries) at 37° C. and 7% CO2.
Cells were first treated with various concentrations of AS101 and after 1 hour SAC was added. After 24 hours, supernatants were collected and evaluated for cytokine content. Viability at the end of these experiments, as assessed by tryptan blue exclusion method, was always found to be >95%.
(§1) The R&D Systems (Minneapolis, Minn.) IL-18 and IL-1β ELISA kits were used for the quantitative measurement of these cytokines either in supernatants or in mice sera.
PBMC (2.5×10^6 cells/ml) were treated with various concentrations of AS101 and after 1 hour were stimulated with SAC (10^−3 V/V). Results represent means±SE of three experiments **p<0.05 decrease vs SAC; *p<0.01 decrease vs SAC. Optimal concentration of SAC for cytokine secretion stimulation was 10^−3 v/v (data not shown).
In general terms: In an ELISA, binding on a coated surface is turned into a signal by an enzyme label.

The conditions of data set [2]: rats, cited from earlier work.
For data set [3], the system named is serine proteases. The following applies: Inorg. Chem. 37: 1704-1712, 1998; cited from earlier work.
In data set [4] the test system is LPS-induced septic mice. As to the kind of experiment: Survival of LPS-induced septic mice. It is filed as in vivo. The protocol:
(§2) For serum cytokine evaluation, PBS or AS101 was injected intraperitoneally (i.p.) 2 hours following LPS treatment. For survival experiments AS101 was injected i.p. daily at various concentrations starting 1 hour and up to 24 hours following LPS until the end of the experiment.
Data are presented as mean±SE. For comparisons of means of the various groups, the pairwise t test was used. Survival curves were statistically analyzed by comparing the cumulative percentage of survival using the Gehan-Wilcoxon test.
In order to study the relationship between the above in vitro and in vivo results and the effect of AS101 on survival of mice following induction of sepsis, AS101 at a concentration of 10 μg/mouse was injected into LPS-induced septic mice at various time points after LPS (0.35 mg/mouse) treatment. Survival was monitored for 9 days.

Data set [5] has as its system human HaCat keratinocytes. As to the kind of experiment: IL-18 production in HaCat keratinocytes after AS101 treatment alone. It is filed as cell-based. As for the experimental part:
IL-18 production has a self-regulating negative feedback loop. This cytokine can down regulate its own production by inducing the production of a native inhibitor, IL-18BP, through an IFN-γ dependent mechanism. Since AS101 has been previously shown to increase IFN-γ due to the direct inhibition of the […], studies were carried out to determine whether the inhibitory effect of AS101 results from induction of IL-18BP directly and/or whether neutralization of IFN-γ would abrogate the inhibitory effect of AS101 on IL-18.

For data set [6], the system named is IL-18 secretion by human PBMC. Description: Role of IFN-γ: IL-18 inhibition in PBMC with IFN-γ neutralizing antibody. The settings on record: anti IFN-γ antibody 0.1 μg/ml 2 hours before AS101 0.5 μg/ml; SAC; 24 hours; FIG. 6. The class given is cell-based. The protocol: as §1
In order to investigate the possibility that enhancement of IFN-γ levels by AS101 might have a synergistic effect on IL-18 inhibition, rhIFN-γ neutralizing antibody (0.1 μg/ml) was delivered to PBMC (2.5×10^6 cells/ml) 2 hours before AS101 (0.5 μg/ml). SAC (10^−3 v/v) was added 1 hour following AS101. Supernatants were collected after 24 hours and evaluated for IL-18 levels.

In data set [7] the test system is IL-1β. As to the kind of experiment: IL-1β levels in LPS-induced septic mice. The following applies: 24 hours after LPS, FIG. 7b. The class given is in vivo, c57BL/6J mice. As for the experimental part:
as §2, §1
PBS (control) and AS101 at various concentrations were injected into c57BL/6J mice 2 hours following induction of sepsis by LPS (0.5 mg/mouse) treatment. 24 hours after LPS injection, mice were sacrificed and evaluated for plasma concentration of these cytokines in order to determine whether AS101 can inhibit production of IL-18 and IL-1β in vivo.

Data set [8] has as its system IL-18 secretion by human PBMC. As to the kind of experiment: Role of nitric oxide: IL-18 inhibition in PBMC with L-NAME. It is filed as cell-based. The following applies: L-NAME 20 nM 2 hours before AS101 0.5 μg/ml; SAC; 24 hours; FIG. 5. As for the experimental part: as §1
L-NAME/D-NAME (20 nM) were delivered to PBMC (2.5×10^6 cells/ml)2 hours before AS101 (0.5 μg/ml). SAC (10^−3 v/v) was added 1 hour following AS101. Supernatants were collected after 24 hours and evaluated for IL-18 levels.

In data set [9] the test system is active form of IL-18 in human HaCat keratinocytes. As to the kind of experiment: Western blot of intracellular active form of IL-18 in HaCat keratinocytes. It is filed as cell-based. The settings on record: AS101 1 μg/ml preincubated 2 hours, FIG. 3. As for the experimental part:
Human HaCat keratinocytes were adjusted to 1×10^6 cells/ml and cultured at 37° C. and 7% CO2 in enriched Dulbecco's modified Eagle's medium (DMEM)(Biological industries, Kibbutz Beit Haemek, Israel), supplemented with 10% FCS (Biological industries).
Total cell extracts were prepared by suspension in ice-cold lysis buffer containing 50 mM Tris (pH 8.0), 150 mM NaCl, 1% NP-40, 0.1% SDS, 5 mM EDTA, 0.2 mM PMSF, 50 mM NaF, […] sodium vanadate, […]. Cell lysates were boiled for 5 min and electrophoresed on 15% SDS-PAGE and were then blotted with monoclonal IL-18 antibodies (R&D Systems, Minneapolis, Minn.). Blots were developed using horseradish peroxidase-conjugated secondary antibodies and the ECL detection system (Amersham Pharmacia Biotech).
IL-18 is […] produced by keratinocytes after treatment with LPS or PMA. In order to determine whether the inhibitory effect of AS101 on the formation of the active form of IL-18 is consistent and will repeat itself in another type of cell culture, Western Blot analysis of total cellular proteins from human HaCat keratinocytes was performed using anti-IL-18 antibodies. […]
Cultured keratinocytes (1×10^6 cells/ml) were preincubated for 2 hours with AS101 (1 μg/ml) and then treated with PMA or LPS. Expression of IL-18 was assessed by WB analysis while α-tubulin was used as internal control. […]

Turning to `Cl[TeH]1(Cl)(Cl)OCCO1` [AS101, ammonium trichloro(dioxyethylene-O,O′)tellurate], in data set [1] (AS101 1 hour before SAC 10^-3 v/v, after 24 hours, FIG. 2b), the “SAC-induced secretion levels of IL-1β” value is reported as “decrease SAC-induced secretion levels”. Further, in data set [1] (SAC, 24 hours), the “concentration from which the decrease in IL-1β secretion is significant (p<0.05)” value was at least 0.5 µg/mL. The “LD50 relative to the immunologically effective dose” value in data set [2] (intramuscular administration) and in data set [2] (intravenous administration) was 500-1000 folds each time. In addition, the “inhibition of serine proteases” value in data set [3] was “no inhibition”. In addition, the “effect on survival of septic mice” value in data set [4] (AS101 10 μg/mouse i.p. daily, injected after LPS 0.35 mg/mouse, survival monitored 9 days, FIG. 8) is on record as “beneficial effect”. Also, in [4] (injected 6 hours following LPS and thereafter every day), the “optimal dose for survival” value worked out at 10 μg/mouse. Further, in [5], the “induction of IL-18 production by AS101 treatment” value is “not able to induce IL-18 production”. For the same compound, the “IL-18 inhibition after neutralization of IFN-γ” value in data set [6] is “does not abrogate IL-18 inhibition”. The “IL-1β level in septic mice” value in data set [7] (AS101 5 μg/mouse i.p. 2 hours after LPS 0.5 mg/mouse) and in [7] (AS101 10 μg/mouse i.p. 2 hours after LPS 0.5 mg/mouse) was “significantly inhibited” throughout. Further, the “inhibitory effect on IL-18 secretion in the presence of NOS inhibitor L-NAME” value in data set [8] was “not diminished”. Moreover, the “amounts of the active form of IL-18” value in data set [9] (then LPS 50 ng/ml) and in data set [9] (then PMA 10 ng/ml) was “produced a decrease in the amounts of the active form of IL-18” in each case.
